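Briefly, cells in 96-well plates were exposed to five compound concentrations for 48 h, and endpoints were estimated by linear interpolation. Abbreviation: GI50, concentration required for 50% inhibition of growth. Definition used: TGI = concentration required for complete inhibition of growth.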
What was measured:
Experiment in all cases: NCI-60 cell line screen, 48 h
[1] = test system: CCRF-CEM leukemia
[2] = test system: HCC-2998 colon
[3] = test system: HOP-92 NSCLC
[4] = test system: MOLT-4 leukemia
[5] = test system: OVCAR-3 ovarian
[6] = test system: OVCAR-5 ovarian
[7] = test system: SF-539 CNS
[8] = test system: SK-MEL-2 melanoma
[9] = test system: SK-OV-3 ovarian
[10] = test system: U251 CNS

For `O=C1c2cccnc2C(=O)c2c1c(C(=O)OCCN1CCOCC1)c1ccccn21`, the GI50 [1] was 0.126 µM, the TGI [1] was 6.8 µM and the GI50 [2] was 0.252 µM. It also gave a TGI [2] of 5.4 µM, a GI50 [3] of 0.0262 µM and a TGI [3] of 0.319 µM. The GI50 [4] was 0.0938 µM, the TGI [4] was 3.22 µM and the GI50 [5] was 0.0671 µM. For the same molecule, the TGI [5] was 1.11 µM, the GI50 [6] was 0.276 µM and the TGI [6] was 1.65 µM. It also gave a GI50 [7] of less than 0.01 µM, a TGI [7] of less than 0.0212 µM and a GI50 [8] of 0.0585 µM. For the same molecule, the TGI [8] was 1.61 µM, the GI50 [9] was less than 0.01 µM and the TGI [9] was 0.0371 µM. It also gave a GI50 [10] of less than 0.0104 µM and a TGI [10] of 0.767 µM.

Work on `CCc1ccc(Nc2cc(C)nc3nc(C)nn23)cc1` yielded a GI50 [1] of 48.1 µM, a TGI [1] greater than 100 µM and a GI50 [2] greater than 100 µM. The TGI [2] was greater than 100 µM, the GI50 [3] was 28.9 µM and the TGI [3] was greater than 100 µM. The GI50 [4] was 33.3 µM, the TGI [4] was greater than 100 µM and the GI50 [5] was 37.8 µM. The TGI [5] was greater than 100 µM, the GI50 [6] was greater than 100 µM and the TGI [6] was greater than 100 µM. For the same molecule, the GI50 [7] was greater than 100 µM, the TGI [7] was greater than 100 µM and the GI50 [8] was greater than 100 µM. The TGI [8] was greater than 100 µM, the GI50 [9] was greater than 100 µM and the TGI [9] was greater than 100 µM. It also gave a GI50 [10] of 75.2 µM and a TGI [10] greater than 100 µM.

With `CC(=O)c1ccc(NCN2C(=O)c3ccccc3C2=O)cc1` the TGI [1] was greater than 100 µM, the TGI [2] was greater than 100 µM and the TGI [3] was greater than 100 µM. For the same molecule, the TGI [4] was greater than 100 µM, the TGI [5] was greater than 100 µM and the TGI [6] was greater than 100 µM. It also gave a TGI [7] greater than 100 µM, a TGI [8] greater than 100 µM and a TGI [9] greater than 100 µM. For the same molecule, the TGI [10] was greater than 100 µM.

`Cc1ccc(C2=C(c3ccccc3)C(O)(c3ccc(C)cc3)C(c3ccccc3)=C2c2ccc(C)cc2)cc1` was tested, and the TGI [1] was greater than 100 µM, the TGI [2] was greater than 100 µM and the TGI [3] was greater than 100 µM. It also gave a TGI [4] greater than 100 µM, a TGI [5] greater than 100 µM and a TGI [6] greater than 100 µM. The TGI [7] was greater than 100 µM, the TGI [8] was greater than 100 µM and the TGI [9] was greater than 100 µM. For the same molecule, the TGI [10] was greater than 100 µM.

`COc1ccc(/C=C/C(=O)c2ccc(Nc3ccnc4cc(Cl)ccc34)cc2)cc1` gave a GI50 [1] of 5.64 µM, a TGI [1] greater than 100 µM and a GI50 [2] greater than 100 µM. For the same molecule, the TGI [2] was greater than 100 µM, the GI50 [3] was greater than 100 µM and the TGI [3] was greater than 100 µM. It also gave a GI50 [4] of 4.35 µM, a TGI [4] greater than 48.4 µM and a GI50 [5] greater than 100 µM. It also gave a TGI [5] greater than 100 µM, a GI50 [6] greater than 100 µM and a TGI [6] greater than 100 µM. The GI50 [7] was greater than 100 µM, the TGI [7] was greater than 100 µM and the GI50 [8] was greater than 100 µM. For the same molecule, the TGI [8] was greater than 100 µM, the GI50 [9] was greater than 100 µM and the TGI [9] was greater than 100 µM. The GI50 [10] was greater than 100 µM and the TGI [10] was greater than 100 µM.

In the case of `O=C([O-])c1ccccc1Nc1ccccc1[O-].[Ni+3].[OH3+].[OH3+].[OH3+]`, the GI50 [1] is reported as greater than 100 µM, the TGI [1] is reported as greater than 100 µM and the GI50 [2] is reported as greater than 100 µM. For the same molecule, the TGI [2] was greater than 100 µM, the GI50 [3] was 31.4 µM and the TGI [3] was greater than 100 µM. The GI50 [4] was greater than 100 µM, the TGI [4] was greater than 100 µM and the GI50 [5] was greater than 100 µM. The TGI [5] was greater than 100 µM, the GI50 [6] was greater than 100 µM and the TGI [6] was greater than 100 µM. For the same molecule, the GI50 [7] was greater than 100 µM, the TGI [7] was greater than 100 µM and the GI50 [8] was greater than 100 µM. It also gave a TGI [8] greater than 100 µM, a GI50 [9] greater than 100 µM and a TGI [9] greater than 100 µM. The GI50 [10] was greater than 100 µM and the TGI [10] was greater than 100 µM.

For `COC(=O)c1ccc(C2SCC(=O)N2NC(=O)C(O)c2ccccc2)cc1` (centres undefined), the GI50 [1] was greater than 100 µM, the TGI [1] was greater than 100 µM and the GI50 [2] was greater than 100 µM. For the same molecule, the TGI [2] was greater than 100 µM, the GI50 [3] was greater than 100 µM and the TGI [3] was greater than 100 µM. For the same molecule, the GI50 [4] was greater than 100 µM, the TGI [4] was greater than 100 µM and the GI50 [5] was greater than 100 µM. It also gave a TGI [5] greater than 100 µM, a GI50 [6] greater than 100 µM and a TGI [6] greater than 100 µM. For the same molecule, the GI50 [7] was greater than 100 µM, the TGI [7] was greater than 100 µM and the GI50 [8] was greater than 100 µM. For the same molecule, the TGI [8] was greater than 100 µM, the GI50 [9] was greater than 100 µM and the TGI [9] was greater than 100 µM. The GI50 [10] was greater than 100 µM and the TGI [10] was greater than 100 µM.

`CCN(CC)CCOc1ccc(C(=C2CCCCC2)c2ccc(OCCN(CC)CC)cc2)cc1` was tested, and the TGI [1] was 3.25 µM, the TGI [2] was 2.62 µM and the TGI [3] was 3.94 µM. For the same molecule, the TGI [4] was 2.59 µM, the TGI [5] was 3.62 µM and the TGI [6] was 3.37 µM. The TGI [7] was 2.96 µM, the TGI [8] was 3.52 µM and the TGI [9] was 3.52 µM. The TGI [10] was 3.1 µM.

`COc1cc(C2C(C#N)=C(N)Oc3cc(O)ccc32)cc(OC)c1OC` (centres undefined) showed a GI50 [1] of 0.37 µM, a TGI [1] greater than 100 µM and a GI50 [2] of 0.964 µM. The TGI [2] was greater than 54.8 µM, the GI50 [3] was 0.301 µM and the TGI [3] was 97.5 µM. For the same molecule, the GI50 [4] was 0.584 µM, the TGI [4] was greater than 100 µM and the GI50 [5] was 0.317 µM. For the same molecule, the TGI [5] was 0.851 µM, the GI50 [6] was 2.36 µM and the TGI [6] was greater than 100 µM. It also gave a GI50 [7] of 0.333 µM, a GI50 [8] of 0.496 µM and a TGI [8] greater than 100 µM. For the same molecule, the GI50 [9] was 0.481 µM, the TGI [9] was greater than 43.9 µM and the GI50 [10] was 0.439 µM. For the same molecule, the TGI [10] was greater than 100 µM.

`c1ccc(C2N3CCCCC3[C@@H]3c4[nH]c5ccccc5c4CCN23)cc1` (some centres undefined) showed a TGI [1] greater than 100 µM, a TGI [2] greater than 100 µM and a TGI [3] greater than 100 µM. It also gave a TGI [4] greater than 100 µM, a TGI [5] greater than 100 µM and a TGI [6] greater than 100 µM. It also gave a TGI [7] greater than 100 µM, a TGI [8] greater than 100 µM and a TGI [9] greater than 100 µM. It also gave a TGI [10] greater than 100 µM.

`C/C(=N\NC(=O)c1ccncc1)c1ccc(O)cc1O` gave a GI50 [1] of 2.08 µM, a TGI [1] greater than 100 µM and a GI50 [2] of 3.59 µM. It also gave a TGI [2] greater than 100 µM, a GI50 [3] of 17.1 µM and a TGI [3] greater than 100 µM. It also gave a GI50 [4] of 4.14 µM, a TGI [4] greater than 100 µM and a GI50 [5] of 4.59 µM. The TGI [5] was greater than 100 µM, the GI50 [6] was 27 µM and the TGI [6] was greater than 100 µM. The GI50 [7] was 5.67 µM, the TGI [7] was greater than 100 µM and the GI50 [8] was greater than 100 µM. The TGI [8] was greater than 100 µM, the GI50 [9] was 5.34 µM and the TGI [9] was greater than 100 µM. It also gave a GI50 [10] of 1.59 µM and a TGI [10] greater than 100 µM.

`COc1ccc(Nc2ncccc2C(=O)NCc2cn(Cc3cccc(Oc4ccccc4)c3)nn2)cc1` gave a GI50 [1] of 3.8 µM, a TGI [1] greater than 100 µM and a GI50 [2] of 2.53 µM. For the same molecule, the TGI [2] was 6.85 µM, the GI50 [3] was 5.67 µM and the TGI [3] was greater than 100 µM. It also gave a GI50 [4] of 2.91 µM, a TGI [4] greater than 100 µM and a GI50 [5] of 2.98 µM. For the same molecule, the TGI [5] was 7.59 µM, the GI50 [6] was 4.23 µM and the TGI [6] was greater than 100 µM. It also gave a GI50 [7] of 2.79 µM, a TGI [7] of 6.69 µM and a GI50 [8] of 3.66 µM. For the same molecule, the TGI [8] was greater than 100 µM, the GI50 [9] was 3.11 µM and the TGI [9] was 9.63 µM. It also gave a GI50 [10] of 3.91 µM and a TGI [10] greater than 100 µM.

Molecule `CCC(/C(=N\Nc1c(Cl)cc(Cl)cc1Cl)c1ccccc1)n1ccnc1C` (centres undefined) has a TGI [1] greater than 100 µM, a TGI [2] of 15.7 µM and a TGI [3] of 19.7 µM. It also gave a TGI [4] of 37.1 µM, a TGI [5] of 18.8 µM and a TGI [6] of 21.2 µM. The TGI [7] was 31.1 µM, the TGI [8] was 28.1 µM and the TGI [9] was 32.3 µM. The TGI [10] was 28.4 µM.

`Nc1nc2c(c3cnccc13)C(c1cccc(Cl)c1)Cc1cnccc1-2` (centres undefined) was tested, and the GI50 [1] was 0.429 µM, the TGI [1] was 19.5 µM and the GI50 [2] was 1.29 µM. The TGI [2] was 12.8 µM, the GI50 [3] was 0.811 µM and the TGI [3] was 18.2 µM. For the same molecule, the GI50 [4] was 0.494 µM, the TGI [4] was 17.3 µM and the GI50 [5] was 0.293 µM. The TGI [5] was 13.1 µM, the GI50 [6] was 0.706 µM and the TGI [6] was 18.6 µM. The GI50 [7] was 0.255 µM, the TGI [7] was 0.752 µM and the GI50 [8] was 0.374 µM. For the same molecule, the TGI [8] was 5.25 µM, the GI50 [9] was 0.51 µM and the TGI [9] was 15 µM. For the same molecule, the GI50 [10] was 0.336 µM and the TGI [10] was 1.08 µM.

— PubChem BioAssay (NCI)
